Experimental data from paper PMC10572522, “A Designed Analog of an Antimicrobial Peptide, Crabrolin, Exhibits Enhanced Anti-Proliferative and In Vivo Antimicrobial Activity” (International Journal of Molecular Sciences, 2023).
Residues, ends and D or L forms follow the SMILES beside them.

Tests used:
[1] = system: P. aeruginosa (ATCC 9027) biofilm; format: cell-based, Pseudomonas aeruginosa; conditions: for MBIC: biofilm inhibitory rate more than 90%; for MBEC: eradication rate greater than 99.9%
Procedure: (§1) To measure the antibiofilm activity of crabrolin and its derivatives, four drug-resistant biofilm-forming strains, MRSA (NCTC 12493), K. pneumoniae (ATCC 43816), E. faecium (NTCC-12697), and P. aeruginosa (ATCC 9027), were used in this assay. Tryptic soy broth (TSB) (for the Gram-positive bacteria) and Luria–Bertani broth (LB) (for the Gram-negative bacteria) were used to culture the bacteria.
(§2) The mass of the biofilm in this assay was detected by the crystal violet staining method. First, 100 μL of 5 × 10^5 CFU/mL bacteria was incubated with 1 μL of different peptide solutions (ranging from 51200 μM to 100 μM) for 24 h at 37 °C with 200 rpm shaking. After the biofilm formation, 100 μL of PBS was used to rinse the biofilm twice. Next, 100 µL of methanol was added to fix the biofilm, and the biofilm was then dried. Thereafter, 100 μL of 0.1% crystal violet was added and left to stain for 15 min, and then the excess crystal violet was further rinsed by PBS. After the plate had air-dried, 30% glacial acetic acid was added to each well of the plate, and the plate was shaken for 15 min before the optical density (OD) value was measured at 595 nm using a Synergy HT plate reader. The MBIC value refers to the minimum concentration at which the biofilm inhibitory rate was more than 90%.
(§3) Different from measuring the MBIC value, to determine the MBEC value, 100 μL of the bacteria was first added to 96-well plates. After the biofilm was formed, the biofilm was rinsed with PBS twice to remove the planktonic cells, and then different concentrations of the drugs were added to the biofilm (the same as the MBIC assay). The mixture was incubated at 37 °C with shaking at 200 rpm. After 24 h of incubation, the mass of the biofilm was measured in the same way as the MBIC value, and the minimum concentration at which the eradication rate was greater than 99.9% was considered to be the MBEC value.

[2] = system: K. pneumoniae (ATCC 43816) biofilm; format: cell-based, Klebsiella pneumoniae; conditions: for MBIC: biofilm inhibitory rate more than 90%; for MBEC: eradication rate greater than 99.9%
Procedure: as §1, §2, §3

[3] = system: MRSA (NCTC 12493) biofilm; format: cell-based, methicillin-resistant Staphylococcus aureus; conditions: for MBIC: biofilm inhibitory rate more than 90%; for MBEC: eradication rate greater than 99.9%
Procedure: as §1, §2, §3

[4] = system: human colorectal carcinoma cell line HCT-116; test: Anti-proliferative assay (MTT); format: cell-based; conditions: HCT-116, MTT, 24 h
Procedure: (§4) The human non-small-cell lung cancer line, H838, the human prostate carcinoma cell line, PC-3, the human glioblastoma astrocytoma, U251MG, the human breast cancer cell line, MCF-7, the human colorectal carcinoma cell line, HCT116, and the human keratinocyte cell line, HaCaT, were used to detect the anti-proliferative effects of the crabrolin and its derivatives in vitro. A total of 8000 cells were seeded in each well of a 96-well plate. After the cells had adhered to the wall, the cells were starved for 4 h. After the starvation, the cells were incubated with different concentrations of the drugs, ranging from 100 µM to 1 nM, for 24 h, with 0.1% Triton X-100 used as a positive control. Next, 10 µL of MTT (3-(4,5-dimethylthiazol-2-yl)-2,5-diphenyltetrazolium bromide) solution (5 mg/mL) was added to each well of the 96-well plate. After 2 h of incubation, 100 μL of DMSO-superseded medium was added to each well to dissolve the formazan crystals. Finally, the absorbance was detected using a Synergy HT plate reader at 570 nm.

[5] = system: human glioblastoma astrocytoma U251MG; test: Anti-proliferative assay (MTT); format: cell-based; conditions: 24 h
Procedure: as §4

[6] = system: human breast cancer cell line MCF-7; test: Anti-proliferative assay (MTT); format: cell-based; conditions: MCF-7, MTT, 24 h
Procedure: as §4

[7] = system: human keratinocyte cell line HaCaT; test: Anti-proliferative assay (MTT); format: cell-based; conditions: HaCaT (normal keratinocytes), 24 h
Procedure: as §4

[8] = system: human prostate carcinoma cell line PC-3; test: Anti-proliferative assay (MTT); format: cell-based; conditions: PC3, MTT, 24 h
Procedure: as §4

[9] = system: human non-small-cell lung cancer line H838; test: Anti-proliferative assay (MTT); format: cell-based; conditions: 24 h
Procedure: as §4

[10] = system: horse erythrocytes; test: Hemolysis assay; format: cell-based; conditions: for HC10 (10% hemolytic concentration) / HC50 (50% hemolytic concentration): erythrocytes, 37 °C, 2 h
Procedure: (§5) According to the procedures described in detail in a previous study, the debris and impurities of the erythrocytes were washed with PBS in advance to yield 2% of the erythrocyte suspension, and the drug concentration was diluted from 1024 µM to 2 µM with PBS [53]. The same amounts of the drug and the erythrocyte suspension were mixed and cultured at 37 °C for 2 h; 0.1% Triton X-100 (Sigma-Aldrich, St. Louis, MO, USA) was prepared as a positive control, and PBS was prepared as a negative control. After the incubation, the supernatant was transferred to a 96-well plate and then detected using a Synergy HT plate reader at 570 nm.

[11] = Hemolysis assay; format: cell-based, horse; conditions: horse, erythrocytes (2% suspension); at the peptide's maximum MIC; relative to Triton X-100; read-out: Hemolysis under the Maximum MIC
Procedure: as §5

[12] = system: E. faecium (NTCC 12697); test: Antimicrobial susceptibility assay (MIC/MBC); format: cell-based, Enterococcus faecium; conditions: for MIC: MHB, 37 °C, 20 h
Procedure: (§6) Six bacteria were tested in this experiment to detect the antimicrobial effects of crabrolin and its derivatives, including S. aureus (NCTC 10788), MRSA (NCTC 12493), E. coli (ATCC 8739), K. pneumoniae (ATCC 43816), E. faecium (NTCC-12697), and P. aeruginosa (ATCC 9027). The tested bacteria were cultured in Mueller Hinton broth medium (MHB) with norfloxacin (20 mg/L) as a positive control. All bacteria were incubated at 37 °C overnight and diluted to 5 × 10^5 CFU/mL before treating with the peptides. Stock solutions of 51,200 µM peptides were prepared in phosphate-buffered saline (PBS) and further diluted by a factor of two to 100 µM. Next, 1 µL of each peptide solution was mixed with 99 µL of bacterial subculture in a 96-well plate, and the plate was incubated at 37 °C for 20 h. After culturing, the absorbance of each well in the 96-well plate was analyzed at 550 nm using a Synergy HT plate reader (BioliseBioTek, Winooski, VT, USA). […] Starting with the MIC value, 10 µL of the solution from each well was dripped onto Mueller Hinton agar (MHA) plates. The plates were cultured at 37 °C for 20 h. After culturing, the lowest concentration with no colony growth was regarded as the MBC.

[13] = system: E. coli (ATCC 8739); test: Antimicrobial susceptibility assay (MIC/MBC); format: cell-based, Escherichia coli; conditions: for MIC: MHB, 37 °C, 20 h
Procedure: as §6

[14] = system: P. aeruginosa (ATCC 9027); test: Antimicrobial susceptibility assay (MIC/MBC); format: cell-based, Pseudomonas aeruginosa; conditions: for MIC: MHB, 37 °C, 20 h
Procedure: as §6

[15] = system: S. aureus (NCTC 10788); test: Antimicrobial susceptibility assay (MIC/MBC); format: cell-based, Staphylococcus aureus; conditions: for MIC: MHB, 37 °C, 20 h
Procedure: as §6

[16] = system: E. faecium (NTCC12697) biofilm; format: cell-based, Enterococcus faecium; conditions: for MBIC: biofilm inhibitory rate more than 90%; for MBEC: eradication rate greater than 99.9%
Procedure: as §1, §2, §3

[17] = system: MRSA (NCTC 12493); test: Antimicrobial susceptibility assay (MIC/MBC); format: cell-based, methicillin-resistant Staphylococcus aureus; conditions: for MIC: MHB, 37 °C, 20 h
Procedure: as §6

[18] = system: K. pneumoniae (ATCC 43816); test: Antimicrobial susceptibility assay (MIC/MBC); format: cell-based, Klebsiella pneumoniae; conditions: for MIC: MHB, 37 °C, 20 h
Procedure: as §6

Row | SMILES | MBIC [1] | MBEC [1] | MBIC [2] | MBEC [2] | MBIC [3] | MBEC [3] | IC50 [4] [µM] | IC50 [5] [µM] | IC50 [6] [µM] | IC50 [7] [µM] | IC50 [8] [µM] | IC50 [9] [µM] | MBC [12] [µM] | MIC [12] [µM] | MBC [13] [µM] | MIC [13] [µM] | MBC [14] [µM] | MIC [14] [µM] | MBC [15] [µM] | MIC [15] [µM] | other results
1 | CC[C@H](C)[C@H](NC(=O)[C@H](CCCNC(=N)N)NC(=O)[C@@H]1CCCN1C(=O)[C@H](CC(C)C)NC(=O)[C@@H](N)Cc1ccccc1)C(=O)N[C@@H](CC(C)C)C(=O)N[C@@H](CCCNC(=N)N)C(=O)N[C@@H](CCCCN)C(=O)N[C@H](C(=O)N[C@H](C(=O)N[C@H](C(=O)N[C@@H](C)C(=O)N[C@@H](CC(C)C)C(N)=O)[C@@H](C)O)C(C)C)[C@@H](C)CC [Crabrolin-4R, FLPRILRKIVTAL-NH2] (H-FLPRILRKIVTAL-NH2) | 128 µM | 256 µM | 16 µM | 128 µM | 8 µM | 64 µM | 47 | 25.1 | 20.3 | 35.8 | 18 | 11.4 | 32 | 16 | 4 | 4 | 16 | 16 | 4 | 2 | HC10 (10% hemolytic concentration) [10]: 62.117 µM; HC50 (50% hemolytic concentration) [10]: 216.266 µM; hemolysis at 2 h [11]: 6.18%; MBIC [16]: 16 µM; MBEC [16]: > 512 µM; MBC [17]: 8 µM; MIC [17]: 4 µM; MBC [18]: 8 µM; MIC [18]: 8 µM
2 | CC[C@H](C)[C@H](NC(=O)[C@H](CCCCN)NC(=O)[C@@H]1CCCN1C(=O)[C@H](CC(C)C)NC(=O)[C@@H](N)Cc1ccccc1)C(=O)N[C@@H](CC(C)C)C(=O)N[C@@H](CCCNC(=N)N)C(=O)N[C@@H](CCCCN)C(=O)N[C@H](C(=O)N[C@H](C(=O)N[C@H](C(=O)N[C@@H](C)C(=O)N[C@@H](CC(C)C)C(N)=O)[C@@H](C)O)C(C)C)[C@@H](C)CC [Crabrolin-4K, FLPKILRKIVTAL-NH2] (H-FLPKILRKIVTAL-NH2) | 512/512 µM | 512/512 µM | 16 µM | 256 µM | 16 µM | 128 µM | 42.9 | 23.5 | 23.2 | 32.6 | 20.6 | 22.6 | 64 | 32 | 8 | 4 | 32 | 16 | 4 | 2 | HC10 (10% hemolytic concentration) [10]: 68.628 µM; HC50 (50% hemolytic concentration) [10]: 217.816 µM; hemolysis at 2 h [11]: 10.4%; MBIC [16]: 16 µM; MBEC [16]: > 512 µM; MBC [17]: 16 µM; MIC [17]: 8 µM; MBC [18]: 32 µM; MIC [18]: 16 µM
3 | CC[C@H](C)[C@H](NC(=O)[C@H](CCCNC(=N)N)NC(=O)[C@H](CCCNC(=N)N)NC(=O)[C@H](CC(C)C)NC(=O)[C@@H](N)CCCNC(=N)N)C(=O)N[C@@H](CC(C)C)C(=O)N[C@@H](CCCNC(=N)N)C(=O)N[C@@H](CCCCN)C(=O)N[C@H](C(=O)N[C@H](C(=O)N[C@@H](CCCNC(=N)N)C(=O)N[C@@H](CCCNC(=N)N)C(=O)N[C@@H](CC(C)C)C(N)=O)C(C)C)[C@@H](C)CC [Crabrolin-PR, RLRRILRKIVRRL-NH2] (H-RLRRILRKIVRRL-NH2) | 8 µM | > 512 µM | 8 µM | > 512 µM | 8 µM | 512 µM | 16.3 | 17.7 | 12.3 | 29.5 | 22.4 | 32.3 | 16 | 8 | 8 | 2 | 16 | 4 | 4 | 2 | HC10 (10% hemolytic concentration) [10]: 5019 µM; Hemolytic activity at the measured maximum concentration ([10]; maximum concentration (range 1 to 512 μM)): less than 1%; hemolysis at 2 h [11]: 3.09%; MBIC [16]: 32 µM; MBEC [16]: > 512 µM; MBC [17]: 8 µM; MIC [17]: 4 µM; MBC [18]: 16 µM; MIC [18]: 8 µM
4 | CC[C@H](C)[C@H](NC(=O)[C@H](CC(C)C)NC(=O)[C@@H]1CCCN1C(=O)[C@H](CC(C)C)NC(=O)[C@@H](N)Cc1ccccc1)C(=O)N[C@@H](CC(C)C)C(=O)N[C@@H](CCCNC(=N)N)C(=O)N[C@@H](CCCCN)C(=O)N[C@@H](CCCNC(=N)N)C(=O)N[C@H](C(=O)N[C@H](C(=O)N[C@@H](C)C(=O)N[C@@H](CC(C)C)C(N)=O)[C@@H](C)O)C(C)C [Crabrolin-9R, FLPLILRKRVTAL-NH2] (H-FLPLILRKRVTAL-NH2) | >512/>512 µM | >512/>512 µM | >512/>512 µM | >512/>512 µM | >512/>512 µM | >512/>512 µM | 1880 | 1140 | 6340 | 5850 | 354 | 2740 | > 512 | > 512 | > 512 | 256 | > 512 | > 512 | > 512 | 256 | Hemolytic activity (in words) ([10]; 1 to 512 μM): lost its hemolytic activity; MBIC [16]: >512/>512 µM; MBEC [16]: >512/>512 µM; MBC [17]: > 512 µM; MIC [17]: > 512 µM; MBC [18]: > 512 µM; MIC [18]: > 512 µM
